Earlier results on one molecule are cited in patent US12290522B2, “Method of treating amyotrophic lateral sclerosis” (Woolsey Pharmaceuticals, Inc., priority 2021, dated 2025).

For this data set the following is noted: in vivo; 1-hydroxy metabolite; Shibuya 2001; cited from earlier work.

Molecules are shown by their SMILES.

On to `O=S(=O)(c1cccc2c(O)nccc12)N1CCCNCC1` [M3], for which the half-life result was “about 8 hours”.
